15 molecules from publication PMC9929631 (The EMBO Journal, 2023) can be followed below.

The target in assay [1] is T1, DDB1‐DCAF12 (Homo sapiens, UniProt Q16531+Q5T6F0). Kind of assay: TR-FRET competition assay. The format is binding.
Assay [2] has as its target T1, DDB1‐DCAF12. Kind of assay: In vitro pull-downs with strep. The format is binding. The conditions noted are these: strep(II)-tagged DDB1-DCAF12, untagged CCT5; Coomassie-stained SDS–PAGE.
Assay [3] has as its system DDB1‐DCAF12, DCAF12 Lys108Ala mutant. The format is binding, human. The conditions noted are these: TR-FRET titration, n = 3. In general terms: Time-resolved FRET reads energy transfer from a long-lived donor to a nearby acceptor.
Assay [4] has as its system DDB1‐DCAF12, DCAF12 His144Ala mutant. Type of assay: binding, human. The conditions noted are these: TR-FRET titration, n = 3.
Assay [5] has as its system DDB1‐DCAF12, DCAF12 Arg203Ala mutant. The format is binding, human. The conditions noted are these: TR-FRET titration, n = 3.
In assay [6] the test system is DDB1‐DCAF12, DCAF12 Arg256Ala mutant. The format is binding, human. The conditions noted are these: TR-FRET titration, n = 3.
Assay [7] has as its system DDB1‐DCAF12, DCAF12 Arg344Ala mutant. Type of assay: binding, human. The conditions noted are these: TR-FRET titration, n = 3.
The target of assay [8] is biotinylated strep(II)-avi-DDB1-strep(II)-DCAF12 complex (wild type) (homo sapiens) (UniProt Q16531). Kind of assay: FRET or BRET. In general terms: BRET reads energy transfer from a luciferase to a nearby fluorophore.

“Also recorded” adds a separate entry of the source. Like-named read-outs stand apart in the source and are kept apart here. Numbered stars: 1 amine (or outer) side, 2 acyl side, 3 side chain; on linkers, the order of the positions; unused ones are H or OH. Square brackets hold non-standard residues; d marks the D form. Ends that are not written are not given here. Peptide text beside a SMILES is read from it. * marks the point of attachment. X1 = N=c1ccc2c(-c3ccccc3C(=O)*)c3ccc(N)c(S(=O)(=O)O)c3oc-2c1S(=O)(=O)O; NMeGABA = CN(CCCC(=O)[*:2])[*:1]

T1 sequence (Q5T6F0 whole entry): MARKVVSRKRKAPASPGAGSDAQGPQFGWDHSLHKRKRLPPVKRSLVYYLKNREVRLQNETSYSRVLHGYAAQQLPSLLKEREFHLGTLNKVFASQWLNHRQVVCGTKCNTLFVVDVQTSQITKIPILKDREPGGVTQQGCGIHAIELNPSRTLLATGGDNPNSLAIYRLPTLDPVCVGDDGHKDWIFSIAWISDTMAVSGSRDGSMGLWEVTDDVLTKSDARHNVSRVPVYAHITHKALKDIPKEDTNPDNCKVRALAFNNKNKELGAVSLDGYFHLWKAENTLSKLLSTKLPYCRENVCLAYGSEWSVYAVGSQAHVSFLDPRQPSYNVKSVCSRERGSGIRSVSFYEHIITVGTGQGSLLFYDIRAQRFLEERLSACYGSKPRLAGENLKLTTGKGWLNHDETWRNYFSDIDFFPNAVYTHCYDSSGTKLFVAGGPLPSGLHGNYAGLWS
T1 sequence (Q16531 whole entry partner): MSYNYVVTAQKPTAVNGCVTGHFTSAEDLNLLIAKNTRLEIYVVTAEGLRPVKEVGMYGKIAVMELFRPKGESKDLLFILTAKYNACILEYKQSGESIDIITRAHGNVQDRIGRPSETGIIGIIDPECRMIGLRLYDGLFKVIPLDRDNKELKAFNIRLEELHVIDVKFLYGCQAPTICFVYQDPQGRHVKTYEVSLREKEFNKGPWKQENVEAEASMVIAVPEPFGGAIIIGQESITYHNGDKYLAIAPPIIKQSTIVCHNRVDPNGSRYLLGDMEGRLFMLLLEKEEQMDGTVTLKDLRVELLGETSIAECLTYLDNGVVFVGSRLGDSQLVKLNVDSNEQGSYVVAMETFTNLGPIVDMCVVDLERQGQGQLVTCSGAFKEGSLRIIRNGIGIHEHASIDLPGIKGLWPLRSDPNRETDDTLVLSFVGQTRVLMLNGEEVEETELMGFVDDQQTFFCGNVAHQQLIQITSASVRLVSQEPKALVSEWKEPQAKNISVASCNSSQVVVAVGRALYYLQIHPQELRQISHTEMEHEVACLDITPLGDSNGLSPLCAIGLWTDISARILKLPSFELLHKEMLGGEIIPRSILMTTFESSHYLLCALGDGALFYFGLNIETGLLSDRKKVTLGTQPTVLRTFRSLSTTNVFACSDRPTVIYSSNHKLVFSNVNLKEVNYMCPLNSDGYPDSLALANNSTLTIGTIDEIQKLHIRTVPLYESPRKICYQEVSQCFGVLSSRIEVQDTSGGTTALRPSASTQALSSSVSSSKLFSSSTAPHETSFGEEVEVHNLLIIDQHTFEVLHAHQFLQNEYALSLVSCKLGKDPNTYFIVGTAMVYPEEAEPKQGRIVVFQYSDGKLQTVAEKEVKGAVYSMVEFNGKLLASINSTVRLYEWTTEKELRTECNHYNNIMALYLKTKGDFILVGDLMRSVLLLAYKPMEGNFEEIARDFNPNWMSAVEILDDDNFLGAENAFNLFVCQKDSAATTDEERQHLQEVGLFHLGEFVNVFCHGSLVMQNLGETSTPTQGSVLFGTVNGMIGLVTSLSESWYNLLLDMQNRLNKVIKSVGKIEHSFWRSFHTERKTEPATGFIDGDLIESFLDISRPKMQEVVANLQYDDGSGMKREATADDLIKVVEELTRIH
CCT5_(10) peptide Glu532Ala, sequence (P48643 whole entry, looked up, change not shown, tested part not stated): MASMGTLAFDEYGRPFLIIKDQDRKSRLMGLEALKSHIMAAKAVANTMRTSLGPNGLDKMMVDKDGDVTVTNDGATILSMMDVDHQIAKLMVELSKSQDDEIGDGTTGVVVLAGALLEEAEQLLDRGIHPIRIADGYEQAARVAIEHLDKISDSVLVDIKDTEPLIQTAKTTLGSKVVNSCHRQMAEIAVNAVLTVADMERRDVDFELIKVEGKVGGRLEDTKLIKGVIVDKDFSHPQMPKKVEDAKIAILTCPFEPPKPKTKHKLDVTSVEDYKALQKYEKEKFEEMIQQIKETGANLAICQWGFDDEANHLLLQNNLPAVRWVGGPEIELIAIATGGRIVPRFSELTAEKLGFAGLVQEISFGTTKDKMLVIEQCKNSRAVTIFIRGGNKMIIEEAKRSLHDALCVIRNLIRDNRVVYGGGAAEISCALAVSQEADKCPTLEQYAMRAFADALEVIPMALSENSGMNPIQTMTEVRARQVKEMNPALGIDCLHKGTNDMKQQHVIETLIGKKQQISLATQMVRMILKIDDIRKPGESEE
biotinylated strep(II)-avi-DDB1-strep(II)-DCAF12 complex (wild type) (homo sapiens), sequence (Q16531 whole entry, chain 1 of 2): as the sequence (Q16531 whole entry partner) above
biotinylated strep(II)-avi-DDB1-strep(II)-DCAF12 complex (wild type) (homo sapiens), sequence (Q5T6F0 whole entry, chain 2 of 2, further chain): as the sequence (Q5T6F0 whole entry) above

One may read the IC50 as the concentration needed to halve the response being measured. Low readings indicate greater potency, high ones weaker potency. The molecule DIRKPGESEE [CCT5_10] gave an IC50 in assay [1] of 0.363 ± 0.078 µM.

With “CCT5 (1–529): CCT5 mutant without the 12 C‐terminal residues”, the “binding to DDB1-DCAF12 in pull-down (in words)” value in assay [2] is listed as “did not bind”.

With DIRKPGEAEE [CCT510 S539A], the IC50 in assay [1] is 0.125 ± 0.015 µM. As to DIRAPGESEE [CCT510 K535A], the IC50 in assay [1] was 0.208 ± 0.026 µM. Still for that read-out and setting: in the case of DIRKAGESEE [CCT510 P536A] it was 0.417 ± 0.053 µM; in that of DIRKPGASEE [CCT510 E538A], 0.571 ± 0.103 µM.

On to DIRKPGESAE [CCT510 E540A], for which the IC50 in assay [1] (IC50, TR-FRET competition against TbDDB1-DCAF12^488, n = 3) was > 50 µM.

As to EGWRLFKIDKEYLLKMATEE [SAT1_20], in assay [1], the IC50 came out at 0.291 ± 0.038 µM. Regarding `CC[C@H](C)[C@H](NC(=O)[C@H](CCSC)NC(=O)[C@H](CCCNC(=N)N)NC(=O)[C@@H](NC(=O)[C@H](CCSC)NC(=O)[C@H](CCC(N)=O)NC(=O)CCCN(C)C(=O)c1ccccc1-c1c2ccc(=N)c(S(=O)(=O)O)c-2oc2c(S(=O)(=O)O)c(N)ccc12)C(C)C)C(=O)N[C@@H](CC(C)C)C(=O)N[C@@H](CCCCN)C(=O)N[C@H](C(=O)N[C@@H](CC(=O)O)C(=O)N[C@@H](CC(=O)O)C(=O)N[C@H](C(=O)N[C@@H](CCCNC(=N)N)C(=O)N[C@@H](CCCCN)C(=O)N1CCC[C@H]1C(=O)NCC(=O)N[C@@H](CCC(=O)O)C(=O)N[C@@H](CO)C(=O)N[C@@H](CCC(=O)O)C(=O)N[C@@H](CCC(=O)O)C(=O)O)[C@@H](C)CC)[C@@H](C)CC` [^488CCT5_20] (X1-[NMeGABA]QMVRMILKIDDIRKPGESEE-OH; C-terminus assumed), the “binding to DCAF12 Lys108Ala mutant (in words)” value in assay [3] is listed as “failed to bind”. The “binding to DCAF12 His144Ala mutant (in words)” value in assay [4] is “failed to bind”. Besides, in assay [5], the “binding to DCAF12 Arg203Ala mutant (in words)” value is given as “abrogated substrate binding”. In addition, the “binding to DCAF12 Arg256Ala mutant (in words)” value in assay [6] is on record as “abolished; also recorded: failed to bind”. In assay [7], the “binding to DCAF12 Arg344Ala mutant (in words)” value is “failed to bind”. “CCT5_(10) peptide Glu532Ala (from UniProt P48643 532-541)” showed an IC50 in assay [8] of 0.222 µM. Consider “TRiC: recombinant ~ 1 MDa human TRiC chaperonin complex of eight co‐expressed subunits”, for which, in assay [1] (TR-FRET competition against TbDDB1-DCAF12^488, n = 3), the IC50 is > 10 µM. For the molecule AIRKPGESEE [CCT510 D532A], the IC50 in assay [1] stood at 0.222 ± 0.025 µM.

In the case of DARKPGESEE [CCT510 I533A], the IC50 in assay [1] turned out to be 0.209 ± 0.025 µM.

For “CCT5: purified recombinant full‐length human CCT5, a subunit of the TRiC chaperonin, monomeric”, the “binding to DDB1-DCAF12 in pull-down (in words)” value in assay [2] is “efficiently bound”. In assay [1], DIAKPGESEE [CCT510 R534A] displayed an IC50 of 0.395 ± 0.068 µM.
